In article PMC12040169 (PLOS Biology, 2025):

Assay: in vitro
Details: human, hela cells

Structure (SMILES)	viability at 28.5 h, 10 µM (% viability) [%]	viability at 28.5 h, 10 µM [%]
O=C(/C=C/c1ccsc1)Nc1ccc(F)cc1 [CBK057139]	93.9	–
O=C(O)C1CCC1C(=O)N1CCN(c2ccc(C(F)(F)F)cn2)CC1 (stereo not drawn) [CBK057147]	93.7	–
O=S(=O)(c1cccs1)N1CCC2(CC1)OCCO2 [CBK057295]	95.1	–
Cc1cc(C(=O)N(CCC#N)Cc2cccs2)no1 [CBK057316]	112	–
O=C(O)CCC(=O)N1CCN(c2ncccn2)CC1 [CBK057422]	114	–
O=C(O)CCC(=O)Nc1cc(C(F)(F)F)ccc1N1CCCC1 [CBK057434]	94.2	–
CCCCNCCn1cnc2c(N)ncnc21 [CBK057447]	116	–
COC(=O)C(CCSC)NC(=O)c1ccc(C(F)(F)F)cc1 (stereo not drawn) [CBK057452]	91.9	–
O=C(O)C1CNC(=O)N1C(=O)OCc1ccccc1 (stereo not drawn) [CBK057462]	98.8	–
Cc1ccc(NC2C=CS(=O)(=O)C2)cc1 (stereo not drawn) [CBK057487]	89.5	–
O=C(Nc1ccc(F)c(Cl)c1)c1cccnc1Sc1cccs1 [CBK057512]	89	–
O=C(NCCSCc1ccco1)C1CCC1 [CBK057516]	119	–
O=C(Nc1ccc2c(c1)CS(=O)(=O)C2)c1cccs1 [CBK057563]	113	–
O=S(=O)(Nc1ccccc1)c1ccccc1I [CBK057566]	92.5	–
O=S(=O)(NC1CCCCC1)c1ccc(Cl)cc1I [CBK057574]	80.8	–
COCC(C)NC(=O)c1cc2c(C)cc(C)cc2[nH]1 (stereo not drawn) [CBK057591]	91.8	–
CC1CN(C(=O)COc2ccccc2OC(=O)N(C)C)CC(C)O1 (stereo not drawn) [CBK057627]	–	121
O=C(O)CCNc1ccc(Cl)cc1 [CBK057631]	75.5	–
O=C(Nc1cccc(Cl)c1Cl)c1cccs1 [CBK057672]	104	–
O=C(CSc1ccccn1)Nc1cccc(Cl)c1Cl [CBK057679]	91.8	–
CSc1ccc(CNC(=O)c2ccc(Cl)cc2)s1 [CBK057705]	89.4	–
COc1ccc(OCCC(=O)O)cc1 [CBK057706]	86.2	–
Cc1cc(Cl)ccc1NC(=O)COCC(=O)O [CBK057723]	104	–
O=S(=O)(c1c(Cl)cc(C(F)(F)F)cc1Cl)N1CCOCC1 [CBK057736]	88.8	–
COC(=O)CNC(=O)c1ccncc1Br [CBK057760]	101	–
Cc1noc(C)c1C(=O)N1CCOCC1 [CBK057765]	80.5	–

Structure (SMILES)	viability at 28.5 h, 10 µM (% viability) [%]	viability at 28.5 h, 10 µM [%]
Cc1nc(COc2ccccc2Cl)sc1-c1ccnc(N)n1 [CBK057769]	91.3	–
Cn1nc(NC(=O)c2ccco2)c2c(F)cccc21 [CBK057774]	93.7	–
CN1CCN(S(=O)(=O)c2ccc(-c3cc(C(F)(F)F)on3)s2)CC1 [CBK057780]	96	–
CC1=C(C(=O)Nc2ccc(Cl)cc2Cl)SCCO1 [CBK057784]	96.5	–
COc1ccccc1N1CCN(C(=O)c2snnc2C)CC1 [CBK057792]	92.8	–
Cc1nc(COc2ccccc2)nc(O)c1Cl [CBK057810]	95.2	–
COC(=O)c1c(C)n[nH]c1COc1ccccc1 [CBK057823]	92.1	–
CCCc1ccc(C(C)NC(=O)C2CC2C)cc1 (stereo not drawn) [CBK057847]	82.4	–
Cc1nn(C)cc1C(=O)NC1CCCC1 [CBK057851]	112	–
Cn1nnnc1SCC(=O)Nc1cc(F)ccc1F [CBK057872]	79.9	–
CCCc1cc(C(=O)OC)c(NC(=O)C2C3CCC(C3)C2C(=O)O)s1 (stereo not drawn) [CBK057885]	98.5	–
COc1ccc(NC(=O)c2sc(Cl)nc2C)cc1 [CBK057902]	97.1	–
O=C(CSC1=NCCS1)Nc1ccc(Cl)cn1 [CBK057917]	84	–
O=C(Nc1nnc(C2CCCCC2)s1)c1ccccc1I [CBK057918]	114	–
O=C(NCCOc1ccc(F)cc1)c1cccs1 [CBK057930]	116	–
CCc1nnc(NC(=O)CCc2ccccc2)s1 [CBK057943]	86.1	–
CC(=O)c1sc(NC(=O)c2ccc(Br)o2)nc1C [CBK057948]	91.6	–
Nc1nc(SCC(=O)NCCCO)nc2sc3c(c12)CCCC3 [CBK057958]	87.8	–
Cc1ccc2[nH]c(SCC(=O)NC3CCCC3)nc2c1 [CBK057983]	90	–
O=C(CSc1ncnc2c1oc1ccccc12)Nc1ccccc1 [CBK057994]	93.4	–
CN(C)CCCOc1ccc2c(c1)Sc1ccccc1CC2=O [CBK058002]	95.4	–
O=C(COc1ccccc1)Nc1nccs1 [CBK058018]	93.4	–
O=C(CSc1ccccc1)NCc1ccncc1 [CBK058023]	96.7	–
CN(C)S(=O)(=O)c1cccnc1OCC(O)CNC(C)(C)C (stereo not drawn) [CBK058059]	84.5	–
CC(CN1CCCCC1)OC(=O)COc1ccc(F)cc1 (stereo not drawn) [CBK058066C]	93.6	–
Cc1cc(NC(=O)c2cc(C)oc2C)no1 [CBK058081]	88.7	–

Structure (SMILES)	viability at 28.5 h, 10 µM (% viability) [%]	viability at 28.5 h, 10 µM [%]
CCC(C)c1ccc(NC(=O)CSc2nnnn2C)cc1 (stereo not drawn) [CBK058085]	122	–
COC(=O)Nc1ccc(S(=O)(=O)N2CCCCC2C(=O)O)cc1 (stereo not drawn) [CBK058086]	106	–
CCCc1cc(C(=O)OC)c(NC(=O)c2c(C)noc2C)s1 [CBK058088]	92.5	–
CN(C(=O)CSc1nnn(C)n1)c1ccccc1 [CBK058129]	117	–
O=C(Nc1ccccc1)c1cccc(S(=O)(=O)NCc2cccs2)c1 [CBK058153]	87.1	–
Cc1cc(-c2ccccc2)nc(SCC(=O)Nc2nnc(C)s2)n1 [CBK058194]	87.3	–
CCCNC(=O)COc1ccc(CC)cc1 [CBK058199]	93.9	–
Cn1nnnc1SCC(=O)Nc1ccc(Cl)c(Cl)c1 [CBK058218]	108	–
O=C(Nc1ccc(Cl)cc1Cl)C1CC2CCC1C2 (stereo not drawn) [CBK058237]	102	–
CCCC(CCC)C(=O)Nc1ccc(NC(=O)c2ccco2)c(C)c1 [CBK058263]	91.9	–
CC1Cc2ccccc2N1C(=O)c1nn(C)cc1I (stereo not drawn) [CBK058268]	97.3	–
CCc1nnc(NC(=O)c2cc(OC)c(OC)c(OC)c2)s1 [CBK058342]	93.1	–
CCC(Sc1nccn1C)C(=O)Nc1ccc(S(N)(=O)=O)cc1 (stereo not drawn) [CBK058413]	107	–
Cn1c(CNC2CCCCC2)nc2ccccc21 [CBK058416]	111	–
CCC(C)(C)c1nnc(NC(=O)COc2ccc(Cl)cc2Cl)s1 [CBK058435]	103	–
O=C1CC(C(=O)Nc2c(Cl)cccc2Cl)C2(CCCCC2)O1 (stereo not drawn) [CBK058445]	95.9	–
Nc1nonc1C(=O)NCCNC(=O)c1ccco1 [CBK058480]	99.1	–
COc1cc(C(=O)NCc2ccccn2)cc(OC)c1OC [CBK058552]	88.3	–
Ic1ccc(NCc2cn3ccccc3n2)cc1 [CBK058563]	91.4	–
O=C(NCc1ccccn1)Nc1cccc(Cl)c1 [CBK058569]	95.9	–
O=C(O)CCC(=O)Nc1ccccc1C(=O)Nc1ccccc1 [CBK058571]	92.4	–
O=C(NCC1CCCO1)c1sc2ccccc2c1Cl (stereo not drawn) [CBK058604]	93.3	–
c1ccc(CNc2nc(-c3ccncc3)cs2)cc1 [CBK058609]	91	–
O=C(Nc1ncc(Cc2ccc(F)cc2)s1)C1CCCCC1 [CBK058611]	105	–
NC(=O)COC(=O)COc1ccc(Cl)cc1Cl [CBK058628]	–	85.8
COc1ccc(NC(=O)CSc2nnc(N)s2)cc1 [CBK058635]	104	–

Structure (SMILES)	viability at 28.5 h, 10 µM (% viability) [%]	viability at 28.5 h, 10 µM [%]
O=C(Nc1nc2ccccc2s1)c1cnccn1 [CBK058664]	83.9	–
O=C(Nc1ccccc1)c1onc2c1CCCC2 [CBK058703]	108	–
Cc1ccc(N(CC(=O)NCC2CCCO2)S(C)(=O)=O)cc1 (stereo not drawn) [CBK058709]	88.1	–
CCC(=O)NC(=S)Nc1cccc(NC(=O)c2cccc(Cl)c2)c1 [CBK058759]	93.6	–
COC(=O)C(CC(C)C)Nc1nc(OC)cc(OC)n1 (stereo not drawn) [CBK058765]	121	–
Cc1cc(C)cc(NC(=O)C2C3C4CCC(C4)C23)c1 (stereo not drawn) [CBK058768]	108	–
Cn1nnnc1NC(=O)c1ccccc1F [CBK058776]	102	–
CC(CNCC1CCCO1)COc1cccc(Cl)c1 (stereo not drawn) [CBK058789]	96	–
O=[N+]([O-])c1ccccc1S(=O)(=O)NCCSCc1ccc(Cl)c(Cl)c1 [CBK058810]	104	–
CCOc1ccccc1NC(C)CC(=O)O (stereo not drawn) [CBK058826]	82.8	–
CCOC(=O)c1sc(NC(=O)C2CCCO2)c(C(N)=O)c1C (stereo not drawn) [CBK058830]	91.3	–
Cc1cc(C)nc(NC(=O)C2C3C=CC(C3)C2C(=O)O)c1 (stereo not drawn) [CBK058843]	104	–
O=C(c1ccc(COc2ccc(I)cc2)cc1)N1CCCCCC1 [CBK058852]	83.4	–
O=C(O)C1C2C=CC(O2)C1C(=O)NCc1ccccn1 (stereo not drawn) [CBK058859]	99.1	–
CC1=NN(C(=O)c2c(Cl)c(C)nn2C)C(O)(C(F)(F)F)C1 (stereo not drawn) [CBK058892]	117	–
CC1=NN(C(=O)c2ccc(Cl)cc2)C(C)(C)C1 [CBK058904]	111	–
O=C(NC1=NCCS1)c1cc2ccccc2o1 [CBK058927]	80.8	–
O=C(Cc1cccc(F)c1)N1CCOCC1 [CBK058928]	83.9	–
CCOC(=O)COc1ccc(C#N)cc1OCC [CBK058937]	103	–
Cc1ccc(CNC(=O)CCC(=O)O)cc1 [CBK058951]	120	–
O=S(=O)(Cc1ccc(Cl)cc1Cl)N1CCOCC1 [CBK058967]	78.1	–
CCC(NC(=O)c1csc2c1CCCC2)c1ccccc1 (stereo not drawn) [CBK059006]	108	–
O=C(NC1CCCCCC1)c1ccc(COCC(F)(F)C(F)F)cc1 [CBK059012]	114	–
Cc1cc(Cl)ccc1OCCCC(=O)N1CCc2ccccc21 [CBK059016]	97.8	–
